We go through 12 molecules from publication PMC7037682, “Herb–Drug Interaction of Red Ginseng Extract and Ginsenoside Rc with Valsartan in Rats” (Molecules, 2020).

The target in data set [1] is T1, OCT2 (Homo sapiens, UniProt O15244).
T1 sequence (O15244 1-555): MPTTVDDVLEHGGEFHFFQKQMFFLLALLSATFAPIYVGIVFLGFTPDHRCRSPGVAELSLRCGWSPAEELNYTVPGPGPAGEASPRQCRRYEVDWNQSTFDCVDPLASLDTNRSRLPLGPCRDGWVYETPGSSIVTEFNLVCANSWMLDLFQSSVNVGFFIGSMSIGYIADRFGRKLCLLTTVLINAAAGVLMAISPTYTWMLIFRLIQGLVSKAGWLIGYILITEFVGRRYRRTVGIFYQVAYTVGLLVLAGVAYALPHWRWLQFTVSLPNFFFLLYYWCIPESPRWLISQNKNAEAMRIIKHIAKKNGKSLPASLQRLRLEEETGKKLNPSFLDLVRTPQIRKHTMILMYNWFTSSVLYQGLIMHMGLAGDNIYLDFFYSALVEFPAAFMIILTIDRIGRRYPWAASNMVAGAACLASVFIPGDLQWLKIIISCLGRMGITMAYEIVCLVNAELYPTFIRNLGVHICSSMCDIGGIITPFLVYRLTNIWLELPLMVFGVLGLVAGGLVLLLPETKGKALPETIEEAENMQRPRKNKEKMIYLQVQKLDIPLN
The data set is described as follows: Inhibition of OCT2-mediated [3H]MPP+ uptake in HEK293-OCT2 cells. Here is the method:
HEK293 cells overexpressing the OCT1, OCT2, OAT1, OAT3, OATP1B1, and OATP1B3 transporters (HEK293-OCT1, -OCT2, -OAT1, -OAT3, -OATP1B1, and -OATP1B3, respectively) and HEK293-mock cells (Corning Life Sciences; Woburn, MA, USA) were used and characterized as previously described.
HEK293 cells overexpressing drug transporters and HEK293-mock cells were seeded in poly-D-lysine-coated 96-well plates at a density of 10^5 cells/well and were cultured in DMEM supplemented with 10% FBS, 5 mM non-essential amino acids, and 2 mM sodium butyrate in a humidified atmosphere with 8% CO2 at 37 °C.
To examine the effects of ginsenosides and typical inhibitors on transporter activity, aliquots (100 μL) of HBSS containing the probe substrate and ginsenosides or typical inhibitors were added to the cells after aspirating pre-incubated HBSS. The concentrations and probe substrates were as follows: 0.1 μM [^3H]MPP^+ for OCT1 and OCT2, 0.1 μM [^3H]PAH for OAT1, 0.1 μM [^3H]ES for OAT3 and OATP1B1, and 0.1 μM [^3H]EG for OATP1B3. […] Then the uptake of probe substrates into HEK293-mock cells and HEK293-OCT1, -OCT2, -OAT1, -OAT3, -OATP1B1, and -OATP1B3 cells in the presence and absence of typical inhibitor or each ginsenoside with previously described concentration range was measured for 5 min. Immediately after placing the plates on ice, the cells were washed three times with 100 μL of ice-cold HBSS, followed by lysing with 50 μL of 10% SDS solution and mixing with 150 μL of Optiphase cocktail solution (Perkin Elmer Inc., Boston, MA, USA). The radioactivity of the probe substrates in the cells was determined using a liquid scintillation counter.
In the inhibition studies, the uptake rate of substrate by HEK293 cells overexpressing the respective transporters was used as the control (100%) and the uptake rate of substrates in the presence of typical inhibitors or ginsenosides expressed as a percentage of the control. The inhibition data were fitted to an inhibitory effect model using Sigma plot (version 10.0; Systat Software Inc., San Jose, CA, USA). IC50 value indicated the half-maximal inhibitory concentration of the inhibitor.

Data set [2] concerns the target T2, OATP1B3 (Homo sapiens, UniProt Q9NPD5).
T2 sequence (Q9NPD5 1-702): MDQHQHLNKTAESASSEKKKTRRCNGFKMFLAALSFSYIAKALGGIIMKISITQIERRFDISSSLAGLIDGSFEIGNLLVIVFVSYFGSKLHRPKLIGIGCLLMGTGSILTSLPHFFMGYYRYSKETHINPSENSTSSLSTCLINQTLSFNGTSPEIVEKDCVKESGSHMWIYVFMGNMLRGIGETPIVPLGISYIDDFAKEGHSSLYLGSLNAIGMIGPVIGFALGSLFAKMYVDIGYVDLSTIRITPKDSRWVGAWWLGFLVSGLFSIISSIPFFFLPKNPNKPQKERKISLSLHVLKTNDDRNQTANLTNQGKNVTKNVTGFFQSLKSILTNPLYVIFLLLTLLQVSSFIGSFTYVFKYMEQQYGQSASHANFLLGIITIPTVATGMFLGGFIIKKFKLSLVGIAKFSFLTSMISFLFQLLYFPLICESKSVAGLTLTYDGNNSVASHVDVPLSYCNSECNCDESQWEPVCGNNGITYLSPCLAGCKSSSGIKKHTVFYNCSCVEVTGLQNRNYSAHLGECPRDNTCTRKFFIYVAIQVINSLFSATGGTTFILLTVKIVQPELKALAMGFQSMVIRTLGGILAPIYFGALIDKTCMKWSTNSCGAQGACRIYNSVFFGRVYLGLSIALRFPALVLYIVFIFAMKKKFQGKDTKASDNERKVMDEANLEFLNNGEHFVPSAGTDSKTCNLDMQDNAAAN
Nature of the data set: Inhibition of OATP1B3-mediated valsartan uptake in HEK293-OATP1B3 cells. Format: cell-based. As to conditions: 5 μM valsartan, 5 min. The arrangement: host or cells: HEK293. The procedure:
Transporter mediated uptake of probe substrates or valsartan was calculated by subtracting the uptake rate of probe substrates or valsartan into HEK293-mock cells from that into HEK293 cells expressing respective transporters.

The conditions of data set [3]: repeated red ginseng extract 3 g/day ref 14, 41; cited from earlier work.
A short description of data set [4]: Protein binding in rat liver homogenate by rapid equilibrium dialysis. The format is in vitro ADME. The following applies: 10% liver homogenate, rat liver homogenate (10%). The procedure: (§1) The protein binding of Rb1, Rb2, and Rc (1 μM) in rat plasma and liver homogenate was determined using a rapid equilibrium dialysis kit (ThermoFisher Scientific Korea, Seoul, Korea) according to the manufacturer’s instructions. Briefly, 100 μL of rat plasma and 10% liver homogenate samples containing Rb1, Rb2, or Rc (1 μM) were added to the sample chamber of a semipermeable membrane (molecular weight cut-off 8000 Da) and 300 μL of HBSS was added to the outer buffer chamber. Four hours after incubation at 37 °C on a shaking incubator at 300 rpm, aliquots (50 μL) were collected from both the sample and buffer chambers and treated with equal volumes of fresh HBSS and plasma, respectively, to match the sample matrices. The matrix-matched samples (100 μL) were mixed with 300 μL of 80% ice-cold methanol containing berberine 0.05 ng/mL and 0.1% formic acid for 15 min.
Tissue protein binding was calculated using the following equations, and a dilution factor (D as a value of 10) was used since we used 10% liver homognenates. (2) Diluted free drug fraction fu^′= Drug concentration in buffer chamber/Drug concentration in liver homogenate chamber (3) Undiluted free drug fraction fu= 1/D/1/fu^′−1+1/D= 0.1/1/fu^′−1+0.1

Data set [5] in a line: Protein binding in rat plasma by rapid equilibrium dialysis. The following applies: rapid equilibrium dialysis 4 h 37 °C. Format: in vitro ADME. The procedure: as §1
Plasma protein binding was calculated using the following equation [47]. (1) Undiluted free drug fraction fu= Drug concentration in buffer chamber/Drug concentration in plasma chamber
A general note: In equilibrium dialysis only unbound substance equilibrates across the membrane.

[6] abbreviates: read-out: IC50 OCT2, HEK293-OCT2, 0.1 μM [3H]MPP+ uptake, 5 min.

Read-outs that look alike come from different tables or passages of the source.

Broadly, the IC50 is the concentration that inhibits the measured activity by half. Turning to `CC(C)=CCCC(C)(O)[C@H]1CC[C@]2(C)[C@@H]1[C@H](O)C[C@@H]1[C@@]3(C)CC[C@H](O)C(C)(C)[C@@H]3CC[C@]12C` (stereo in doubt) [PPD, protopanaxadiol], in data set [1] (setting [6]), the IC50 is greater than 100 µM.
`CC(C)=CCC[C@](C)(O[C@@H]1O[C@H](CO)[C@@H](O)[C@H](O)[C@H]1O)[C@H]1CC[C@]2(C)[C@@H]1[C@H](O)C[C@@H]1[C@@]3(C)CC[C@H](O)C(C)(C)[C@@H]3CC[C@]12C` [Compound K, compound K]: in data set [1] (setting [6]), the IC50 is greater than 100 µM.
With `CC(C)=CCC[C@](C)(O)[C@H]1CC[C@]2(C)[C@@H]1[C@H](O)C[C@@H]1[C@@]3(C)CC[C@H](O)C(C)(C)[C@@H]3[C@@H](O)C[C@]12C` [PPT, protopanaxatriol], in data set [1] (setting [6]), the 50% inhibitory concentration (IC50) was greater than 100 µM.
A word on the fraction unbound: it is free concentration divided by total concentration. The low end stands for little free substance, the high end for much free substance. For the molecule `CC(C)=CCC[C@](C)(O[C@@H]1O[C@H](CO[C@@H]2O[C@H](CO)[C@@H](O)[C@H](O)[C@H]2O)[C@@H](O)[C@H](O)[C@H]1O)[C@H]1CC[C@]2(C)[C@@H]1[C@H](O)C[C@@H]1[C@@]3(C)CC[C@H](O[C@@H]4O[C@H](CO)[C@@H](O)[C@H](O)[C@H]4O[C@@H]4O[C@H](CO)[C@@H](O)[C@H](O)[C@H]4O)C(C)(C)[C@@H]3CC[C@]12C` [Rb1, ginsenoside Rb1], the results for the concentration for half-maximal inhibition (IC50) in data set [2] and in data set [1] were 4.1 µM and greater than 100 µM, respectively. Moreover, the “maximum concentration in human blood” value in data set [3] is 6.2 to 12.7 nM. For the same molecule, the results for the unbound share (fraction unbound) at 4 h, 1 μM in data set [4] and in data set [5] were 0.004 and 0.002, respectively.
As to `CC(C)=CCC[C@](C)(O[C@@H]1O[C@H](CO[C@@H]2OC[C@H](O)[C@H](O)[C@H]2O)[C@@H](O)[C@H](O)[C@H]1O)[C@H]1CC[C@]2(C)[C@@H]1[C@H](O)C[C@@H]1[C@@]3(C)CC[C@H](O[C@@H]4O[C@H](CO)[C@@H](O)[C@H](O)[C@H]4O[C@@H]4O[C@H](CO)[C@@H](O)[C@H](O)[C@H]4O)C(C)(C)[C@@H]3CC[C@]12C` [Rb2, ginsenoside Rb2], the IC50 in data set [2] is 5.1 µM; in data set [1] it was greater than 100 µM. In addition, the “maximum concentration in human blood” value in data set [3] is 6.2 to 12.7 nM. Moreover, the fraction unbound at 4 h, 1 μM in data set [4] was 0.004; in data set [5], 0.001 ± 4e-08.
In the case of `CC(C)=CCC[C@](C)(O[C@@H]1O[C@H](CO[C@@H]2O[C@@H](CO)[C@H](O)[C@H]2O)[C@@H](O)[C@H](O)[C@H]1O)[C@H]1CC[C@]2(C)[C@@H]1[C@H](O)C[C@@H]1[C@@]3(C)CC[C@H](O[C@@H]4O[C@H](CO)[C@@H](O)[C@H](O)[C@H]4O[C@@H]4O[C@H](CO)[C@@H](O)[C@H](O)[C@H]4O)C(C)(C)[C@@H]3CC[C@]12C` [Rc, ginsenoside Rc], the figures for the IC50 in data set [2] and in data set [1] were 1.9 µM and greater than 100 µM, respectively. Besides, in data set [3], the “maximum concentration in human blood” value is 6.2 to 12.7 nM. For the same molecule, the unbound share (fraction unbound) at 4 h, 1 μM in data set [4] is 0.005; in data set [5], 0.001 ± 7.01e-08.
With `CC(C)=CCC[C@](C)(O[C@@H]1O[C@H](CO)[C@@H](O)[C@H](O)[C@H]1O)[C@H]1CC[C@]2(C)[C@@H]1[C@H](O)C[C@@H]1[C@@]3(C)CC[C@H](O[C@@H]4O[C@H](CO)[C@@H](O)[C@H](O)[C@H]4O[C@@H]4O[C@H](CO)[C@@H](O)[C@H](O)[C@H]4O)C(C)(C)[C@@H]3CC[C@]12C` [Rd, ginsenoside Rd], the 50% inhibitory concentration (IC50) in data set [1] is greater than 100 µM.
The same measure, in the same setting: the result for `CC(C)=CCC[C@](C)(O[C@@H]1O[C@H](CO)[C@@H](O)[C@H](O)[C@H]1O)[C@H]1CC[C@]2(C)[C@@H]1[C@H](O)C[C@@H]1[C@@]3(C)CC[C@H](O)C(C)(C)[C@@H]3[C@@H](O[C@@H]3O[C@H](CO)[C@@H](O)[C@H](O)[C@H]3O[C@@H]3O[C@@H](C)[C@H](O)[C@@H](O)[C@H]3O)C[C@]12C` [Re, ginsenoside Re] reads greater than 100 µM.
Still for that read-out and setting: the value for `CC(C)=CCC[C@](C)(O[C@@H]1O[C@H](CO)[C@@H](O)[C@H](O)[C@H]1O)[C@H]1CC[C@]2(C)[C@@H]1[C@H](O)C[C@@H]1[C@@]3(C)CC[C@H](O)C(C)(C)[C@@H]3[C@@H](O[C@@H]3O[C@H](CO)[C@@H](O)[C@H](O)[C@H]3O)C[C@]12C` [Rg1, ginsenoside Rg1] was greater than 100 µM.
Consider `CC(C)=CCC[C@](C)(O)[C@H]1CC[C@]2(C)[C@@H]1[C@H](O)C[C@@H]1[C@@]3(C)CC[C@H](O[C@@H]4O[C@H](CO)[C@@H](O)[C@H](O)[C@H]4O[C@@H]4O[C@H](CO)[C@@H](O)[C@H](O)[C@H]4O)C(C)(C)[C@@H]3CC[C@]12C` [Rg3, ginsenoside Rg3], for which, in data set [1] (setting [6]), the IC50 is greater than 100 µM.
`CC(C)=CCC[C@](C)(O)[C@H]1CC[C@]2(C)[C@@H]1[C@H](O)C[C@@H]1[C@@]3(C)CC[C@H](O)C(C)(C)[C@@H]3[C@@H](O[C@@H]3O[C@H](CO)[C@@H](O)[C@H](O)[C@H]3O)C[C@]12C` [Rh1, ginsenoside Rh1]: the IC50 in data set [1] is greater than 100 µM.
Same read-out and setting: the result for `CC(C)=CCC[C@](C)(O)[C@H]1CC[C@]2(C)[C@@H]1[C@H](O)C[C@@H]1[C@@]3(C)CC[C@H](O[C@@H]4O[C@H](CO)[C@@H](O)[C@H](O)[C@H]4O)C(C)(C)[C@@H]3CC[C@]12C` [Rh2, ginsenoside Rh2] reads greater than 100 µM.
